Experiments:
[1] = test system: phosphoproteins in PC3 cells; experiment: PhosphoScan LC-MS/MS of BL4176 immunoprecipitates; type: cell-based, human
Description: The Kinoview™ and PhosphoScan™ assays were performed by Cell Signaling Technology Inc.
Supplementary Figure 12. Identification of the 83 kDa band using a proteomic approach.
(a) PC3 cells were pre-treated with 10 µM KBU2046 or vehicle (control) for 3 days, then treated with TGFβ for 1 hr, and the resultant cell lysates were subjected to immunoprecipitation with BL4176 (Kinoview® phospho-motif antibody). Proteins bound in this manner were analyzed in replicates of N=2 using PhosphoScan™ technology. This identified 483 unique phosphopeptide assignments from 306 parent proteins, with a mean false discovery rate of 0.30% (estimated via Sorcerer search of composite human database of forward and reverse protein entries). We only considered proteins where the average values for treatment and control were each 3 times that of background. Further, we required each of the N=2 replicate values (used to calculate the average) to be >/= 2.5 fold above background. We were only interested in situations in which protein decreased with KBU2046, and we required that decrease to be >/= 2.5 fold, compared to control.
According to these parameters, there were 19 phospho-proteins whose expression decreased in cells treated with KBU2046, compared to control. These are depicted above. Recognizing that each of these proteins may have value, we elected to remain focused on the 83 kDa protein, and therefore only considered proteins +/- 5 kDa of this value. Only heat shock protein 90 (HSP90)β

NCI-60 cell line panel = experiment: NCI 60 cell line panel screening; type: cell-based, human; conditions: initial screening per DTP protocol
Description: panel. KBU2046 was submitted to the Developmental Therapeutics Program (DTP) of the US National Cancer Institute (NCI), underwent initial screening across the NCI 60 cell line panel per DTP protocol 1, and the resultant COMPARE diagram is depicted above. Based upon its lack of […]
Supplementary Figure 3. […] Estrogen […]
receptor positive MCF-7 cells were cultured under hormone free conditions transfected pERE-Luc or empty control vector, along with constitutive active β-gal, grown under estrogen-free conditions, and pre-treated for 24 hours with nanomolar concentrations of estradiol, or with micromolar concentrations of genistein or KBU2046, as indicated. Luciferase activity was measured, normalized to that of β-gal, and values expressed as the percent of untreated vector control cells. Values are the mean±SD of a single experiment, with similar results seen in a separate repeat experiment, both in replicates of N=2.
(also on this page, place not known: luciferase/B-gal activity, % untreated vector control)
(§1) (1 picture or pasted object on this page, not shown here)

CDC37 = molecular target: T1, CDC37 (Homo sapiens, UniProt Q16543); experiment: Biophysical binding assays and DARTS, isolated CDC37; conditions: ITC, thermal shift, biolayer interferometry, dynamic light scattering, DARTS
T1 construct: made in house; host or cells: BL-21 DE-3 E. coli
T1 sequence (Q16543 whole entry): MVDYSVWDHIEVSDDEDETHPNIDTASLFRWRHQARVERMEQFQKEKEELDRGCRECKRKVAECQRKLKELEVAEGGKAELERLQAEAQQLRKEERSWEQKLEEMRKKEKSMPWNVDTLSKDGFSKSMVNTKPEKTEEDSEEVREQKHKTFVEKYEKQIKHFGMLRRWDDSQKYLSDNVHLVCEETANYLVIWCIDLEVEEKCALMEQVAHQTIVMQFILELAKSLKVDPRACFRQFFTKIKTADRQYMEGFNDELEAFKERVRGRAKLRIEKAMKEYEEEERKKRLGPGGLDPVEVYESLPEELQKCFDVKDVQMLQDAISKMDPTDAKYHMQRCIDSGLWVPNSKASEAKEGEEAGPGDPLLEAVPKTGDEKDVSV
Description: (§2) Fluorescent thermal shift, isothermal titration calorimetry, and biolayer interferometry assays[46] were all performed as described by us using MEK4EE (37-399, S257E, T261E) cloned into pMCSG7 and KRX Competent E. coli cells (Promega Inc.) and above denoted full-length HSP90B and CDC37 vectors and Rosetta BL-21 and BL-21 DE-3 competent E. coli cells, respectively. DARTS assays were conducted as described, using equimolar amounts of CDC37 and HSP90β, thermolysin digestion, and silver stain visualization (ProteoSilver Silver Stain Kit, Sigma-Aldrich).
Supplementary Figure 14. […] Studies used purified […]
recombinant HSP90β or CDC37. Fluorescent thermal shift 5, isothermal titration calorimetry 6, […]
evidence of KBU2046 binding to either HSP90β or CDC37 (data not shown). For DARTS assay, HSP90β or CDC37 were individually pre-incubated with KBU2046, thermolysin added, and reaction products were separated by SDS PAGE and visualized by silver stain (depicted above).
NTco – no thermolysin control. However, when the DARTS assay was conducted with both HSP90β and CDC37 present, KBU2046 protected both proteins from degradation in a concentration-dependent manner (see manuscript Fig 5A).
(also on this page, place not known: HSP90 Ntco 0 0.001 0.01 0.1 1.0 10 µM KBU2046, thermolysin NTco thermolysin CDC37)
as §1

PC3-M cells = experiment: Boyden chamber cell invasion assay, PC3-M cells; type: cell-based, human
Description: Boyden chamber cell invasion assays were performed as previously described by us[30], using either denatured collagen (BD Biosciences) or type IV human collagen (BD Biosciences), with all experiments repeated, each in N = 4 replicates. In some experiments, as indicated, cells were transfected with an expression plasmid, using Lipofectamine 2000™ (Invitrogen), or with siRNA, using DharmaFect Duo (Thermo Scientific) and co-transfected with β-Galactosidase (Plasmid pCMV•SPORT-βgal; Life Technology). […]
For cell invasion, PC3-M cells […]
were treated with 10 µM compound for a total of 3 days, and cell invasion assays were run at the end of the 3 day period, in the presence of compound. Values are the mean±SEM of three separate experiments, each run in replicates of N=3. […]
assays were performed with PC3-M cells. Values are the mean±SEM of a single experiment, in replicates of N=4, repeated at least once (also N=4). […]

MKK4 = molecular target: T2, MKK4 (Homo sapiens, UniProt P45985, S257E/T261E); experiment: Fluorescence-based thermal shift assay, MKK4; type: binding
T2 construct: made in house; host or cells: KRX E. coli
T2 sequence (P45985 37-399 S257E/T261E): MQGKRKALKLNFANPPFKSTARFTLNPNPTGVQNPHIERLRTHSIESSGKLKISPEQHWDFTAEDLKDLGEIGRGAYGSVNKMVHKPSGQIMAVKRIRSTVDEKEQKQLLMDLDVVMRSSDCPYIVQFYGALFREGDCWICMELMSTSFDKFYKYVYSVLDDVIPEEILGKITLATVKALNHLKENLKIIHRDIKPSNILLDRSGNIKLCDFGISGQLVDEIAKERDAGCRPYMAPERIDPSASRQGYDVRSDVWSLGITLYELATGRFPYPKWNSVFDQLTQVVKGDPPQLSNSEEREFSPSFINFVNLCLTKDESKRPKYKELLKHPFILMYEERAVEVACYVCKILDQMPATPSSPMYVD
Description: as §2
Supplementary Figure 9. […] (a) Depiction of […]
established MKK4 pathway regulating human PCa cell metastasis. […]
to MKK4, as measured by fluorescence-based thermal shift assay. Values are the mean±SD (of N=2 replicates) increase in melting temperature (ΔTm) of purified recombinant MKK4 induced by the indicated concentrations of KBU2046 or genistein. […]
in an in vitro kinase assay. The indicated concentrations of KBU2046 were added to recombinant activated MKK4, and its ability to phosphorylate kinase dead p38α MAPK (K53A) was measured by Western blot for total (p38 MAPK) and phosphorylated (pp38 MAPK) forms of […]
HSP27 in cells. PC3-M cells were pre-treated for 24 hours with 50 µM KBU2046 or genistein, as indicated, then with TGFβ, and Western blot performed. […]

## O=C1c2ccccc2OCC1c1ccc(F)cc1 (racemic) [KBU2046, (±)-3(4-fluorophenyl)chroman-4-one]
[1]; AALDALNT*DDENDEEEYEAWK
  fold change, MFAP1: -21.8 fold
[1]; CNT*DDTIGDLKK
  fold change, UBL5: -2.9 fold
[1]; DLLS*DLQDIS*DSER
  fold change, PITSLRE: -3.3 fold
[1]; DQKLS*ELDDR
  fold change, VAMP1: -3.6 fold
[1]; DRPHAS*GT*DGDES*EEDPPEHKPSK
  fold change, PIMT: -4.7 fold
[1]; DRPHASGT*DGDES*EEDPPEHKPSK
  fold change, PIMT: -3.0 fold
[1]; EIS*DDEAEEEKGEKEEEDKDDEEKPK
  fold change, HSP90B: -6.6 fold
[1]; ERDHS*PTPSVFNS*DEER
  fold change, FIP1L1: -2.9 fold
[1]; GHHVT*DSENDEPLNLNAS*DSESEELHR
  fold change, IWS1: -3.2 fold
[1]; HVLS*DLEDDEVR
  fold change, NIN: -3.1 fold
[1]; LLKPGEEPS*EYT*DEEDTKDHNK, PC3, 10 µM 3 days, TGFβ 1 hr
  fold change, PGRMC2: -2.5 fold
[1]; MQNT*DDEERPQLS*DDER
  fold change, LEO1: -3.4 fold
[1]; NGSLDSPGKQDT*EEDEEEDEKDKGK
  fold change, NudC: -2.5 fold
[1]; PC3 cells, KBU2046 then TGFβ
  decrease in abundance of phosphorylated Ser226 on HSP90β: 6.6 fold
[1]; S*ES*SDFEVVPK
  fold change, BAT2D1: -2.7 fold
[1]; SEDGYHS*DGDYGEHDYR
  fold change, RBM5: -2.7 fold
[1]; SRS*DIDVNAAAGAK
  fold change, CLASP2: -2.4 fold
[1]; TKFAS*DDEHDEHDENGATGPVK
  fold change, SSB: -4.5 fold
[1]; VGPGNHGTEGS*GGERHS*DTDS*DRR
  fold change, SEC62: -2.8 fold
[1]; VGPGNHGTEGSGGERHS*DT*DSDRR
  fold change, SEC62: -2.6 fold
NCI-60 cell line panel
  toxicity to NCI-60 cells: not toxic
CDC37
  binding to CDC37: no evidence of KBU2046 binding
PC3-M cells; PC3-M cells pretreated, then ± TGFβ
  anti-invasion efficacy under TGFβ stimulation: retains efficacy
PC3-M cells; PC3-M cells, 10 µM compound, 3 days
  anti-invasion activity: anti-invasive efficacy at least equal
MKK4
  binding to MKK4: did not bind to MKK4
